Measurements taken from patent US9688865B2, “Liquid composition, pigment dispersion liquid, and aqueous ink composition for ink jet recording” (Seiko Epson Corporation, priority 2015, dated 2017).

Columns and labels:
[1] = Distribution coefficient of water-octanol (log P), OECD Test Guideline 107

logP (physchem) | logP [1] | SMILES
-2.36 | – | OCC(CO)(CO)CO [Pentaerythritol]
– | 2.29 | CCCCCCCC(=O)OCC(CO)(CO)CO [Pentaerythritol caprylate, pentaerythritol caprylate]
